Consider two compounds from patent US9611246B2, “Compositions, apparatus, systems, and methods for resolving electronic excited states” (HALLSTAR INNOVATIONS CORP., priority 2012, dated 2017).

What all share (type): physicochemical
Data set [1] can be described thus: Protoporphyrin IX fluorescence lifetime quenching (singlet excited state). The settings on record: for bimolecular quenching rate constant for singlet excited state quenching (in words) / Singlet Quenching Rate Constant: PPIX; for Singlet Quenching Rate Constant: acetonitrile solutions at room temperature. As to the method: Fluorescence lifetime measurements are a convenient way to measure singlet state quenching by stabilizers. Protoporphyrin IX decay traces were recorded in the absence and presence of compound I(a)(1) and alkoxy […] (FIG. 3). […] The collected data shown in FIG. 3 were used to determine the bimolecular quenching rate constant for singlet excited state quenching by the compounds. The quenching rate constant may be directly extracted from the slope of the plot of the inverse fluorescence lifetime vs. the concentration of the two compounds (FIG. 4). […] The biomolecular quenching rate constants for singlet excited state (kq^S) and triplet excited state (kq^T) quenching of PPIX by stabilizers in acetonitrile solutions at room temperature is shown in Table 4, as well and the Stern-Volmer rate constants.

Data set [2] can be described thus: Protoporphyrin IX triplet state quenching by laser flash photolysis. Conditions: for Triplet Quenching Rate Constant: PPIX, acetonitrile solutions at room temperature. As to the method:
To investigate if triplet states of protoporphyrin IX are quenched by the two compounds, laser flash photolysis experiments were performed. In these experiments, a deoxygenated acetonitrile solution of protoporphyrin IX is excited with short laser pulses from a Nd-YAG laser (355 nm, 5 ns pulse width). Difference absorption kinetic traces were recorded at different observation wavelengths (300 to 800 nm) and from these a transient absorption spectrum was constructed (FIG. 5A). […] In addition, two bands are observed at 320 and 440 nm, which are assigned to the triplet-triplet absorption of protoporphyrin IX. […] Triplet absorption kinetics at 440 nm may be utilized to obtain triplet quenching rate constants by the stabilizers. Triplet decay traces at 440 nm were recorded in the presence of different amounts of the alkoxy […], Formulas […])(1), and the mixture of II(b)(1) and II(c)(1). The decay traces were fitted to a first-order kinetics. The plot of these pseudo-first-order rate constants (inverse decay lifetime) vs. the concentration of the two compounds gives directly the bimolecular triplet quenching rate constant from the slope (FIG. 6). The biomolecular quenching rate constants for singlet excited state (kq^S) and triplet excited state (kq^T) quenching of PPIX by stabilizers in acetonitrile solutions at room temperature is shown in Table 4, as well and the Stern-Volmer rate constants.

A short description of data set [3]: Luminescence experiments in ethanol (room temperature and 77 K matrix). As to the method: Because Formula II(a)(1) contains a ketone functionality, intersystem crossing into the triplet state could be promoted after photoexcitation due to spin-orbit coupling. Stabilizer triplet states could generate singlet oxygen. Low-temperature luminescence experiments in a ethanol matrix at 77 K were performed in search for phosphorescence of potential triplet states.
The quenching mechanism of protoporphyrin IX singlet excited states and triplet states by the compound of Formulas I, II, and III may be further clarified. A simple energy transfer mechanism would depend on the singlet and triplet energies of compounds of Formula I and protoporphyrin IX. To get information on excited state energies of the stabilizer, luminescence experiments were performed. […] However, weak luminescence was observed of the compound of Formula I(a)(1) in a frozen ethanol matrix at 77 K. The luminescence with maximum at 575 nm (FIG. 7c) originates from the compound of Formula I(a)(1), because the luminescence excitation spectrum (FIG. 7b) matches well the absorption spectrum of the compound of Formula I(a)(1) (FIG. 5a). The luminescence lifetime could not be determined, because of the weak signal intensity. […] If the luminescence at 575 nm is the fluorescence, then the Stoke's shift is unusually large. Independent of the assignment of the luminescence to the fluorescence or phosphorescence, this excited state energy is higher than singlet and triplet energies of protoporphyrin IX and rules out a simple energy transfer quenching mechanism. Another possible quenching mechanism is electron transfer quenching which would depend on the redox potentials of the protoporphyrin and the two quencher compounds.

Data set [4] can be described thus: Stern-Volmer analysis of singlet oxygen suppression. The source says:
The singlet oxygen phosphorescence intensity in the absence of the compound of Formulas I(a)(1), II(a)(1), II(d)(1), II(e)(1), or a mixture of II(b)(1) and II(c)(1) (I0) divided by the singlet oxygen phosphorescence intensity in the presence of compounds of Formula I/II(I) was plotted against the Formula I/II concentration (FIG. 16). From the slope of these plots (Stern-Volmer constant) and the lifetime of the quenched excited state, the bimolecular quenching constant can be extracted. If the excited state, which is quenched by the compound of Formula I(a)(1) (which causes a reduction in singlet oxygen production) is the singlet excited state of protoporphyrin IX then, using the previously measured fluorescence lifetime in acetonitrile (if =12.7 ns) a quenching rate constant of 2.4×10^9 M^−1 s^−1 is estimated. […] The rate constant derived from singlet oxygen phosphorescence quenching (FIG. 16) is only half of the more directly derived rate constant from fluorescence quenching, which could be caused by the difference in solvents or by some contribution of protoporphyrin triplet quenching by the compound of Formula I(a)(1). […] This rate constant is 5 times higher than the directly measured rate constant by laser flash photolysis (6.1×10^6 M^−1 s^−1). […] It must be noted that protoporphyrin IX triplet lifetime of ˜1 μs in air saturated DMSO was only estimated based on the directly measured triplet lifetime in air saturated acetonitrile and considering the different oxygen concentration in DMSO compared to acetonitrile. If necessary, the protoporphyrin IX triplet lifetime in air saturated DMSO can easily be measured by laser flash photolysis. The complex reaction mechanism is summarized in Scheme 1 (FIG. 17).
The biomolecular quenching rate constants for singlet excited state (kq^S) and triplet excited state (kq^T) quenching of PPIX by stabilizers in acetonitrile solutions at room temperature is shown in Table 4, as well and the Stern-Volmer rate constants.
Stern-Volmer constants are in direct correlation with the singlet oxygen suppression efficiency. Table 4 (above) summarizes the Stern-Volmer constants and PPIX singlet and triplet state quenching rate constants. Three different ranges of Stern-Volmer constants were observed. […] For compounds I(a)(1), II(d)(1), and the mixture of II(b)(1) and II(c)(1), Stern-Volmer constants of about 30 M^−1 were observed. For these three stabilizers, high PPIX singlet quenching rate constants (about 5×10^9 M^−1 s^−1) but low triplet quenching rate constants (<10^9 M^−1 s^−1) were observed. Here, the singlet oxygen suppression is probably dominated by PPIX singlet excited state quenching by these stabilizers. […] Because of the very high PPIX triplet quenching rate constant by compound II(a)(1) (3.2×10^9 M^−1 s^−1), the singlet oxygen suppression is probably dominated by triplet quenching. […] These kinetic parameters may include the MePPIX triplet and singlet lifetimes in air saturated and oxygen free CDCl3 and the bimolecular quenching constant by oxygen.

The nature of data set [5]: Voltammetry, redox potential with respect to Ag/AgCl reference electrode. The settings on record: vs Ag/AgCl; for second redox couple, oxidation peak: the small peak where two are given.
Description: For these experiments, dimethylsulfoxide (DMSO) and tetrabutylammonium perchlorate (TBAP) were obtained from Sigma Aldrich and used as received. […] Platinum wires (BASi MW-1032) of diameter 0.5 mm were employed for both the working electrode (WE) and counter electrode (CE). A dry-solvent tolerant Ag/AgCl reference electrode (RE) was obtained from eDAQ (Model ET072). The WE and CE were cleaned prior to each by first rinsing in acetone, then DI, followed by soaking in ˜50% aqueous H2SO4 for 10-20 minutes and then a final DI rinse. The RE electrode was cleaned prior to each use by an acetone rinse followed by DI rinse. Each sample solution was prepared in a fresh glass vial which had been rinsed with DI then acetone and allowed to dry Immediately after preparing each solution, it was purged with pure N2 gas for 15-20 minutes with the electrodes in place. Voltammetry data was collected shortly afterwards with an EG&G PAR 263 A Potentiostant/Galvanostat operated using a Labview-based control program. Scans were performed at various potential ranges between +2.0V and −2.0V (vs Ag/AgCl); all scan rates were constant at 200 mV/s.
[6] abbreviates: 0.01 M in 0.1 M TBAP in DMSO, 200 mV/s.

SMILES strings stand for the structures.

For the compound `COC(=O)C(C#N)=C1c2ccccc2-c2ccccc21` [Formula I(a)(1)], in data set [1] (acetonitrile), the “bimolecular quenching rate constant for singlet excited state quenching (in words)” value was “high quenching rate constant” and the “rate constant of PPIX singlet quenching using fluorescence quenching” value worked out at 5.3e+09 M⁻¹ s⁻¹. Also, in data set [1], the “Singlet Quenching Rate Constant” value is given as 5.3 10^9 M^−1s^−1. For the same compound, in data set [1] (acetonitrile, alkoxy crylene even at 0.1 M), the “quenching of protoporphyrin IX fluorescence (fluorescence lifetime)” value was “significantly quenches”. In data set [2], the “PPIX triplet quenching rate constant by laser flash photolysis” value was found to be 6.1e+06 M⁻¹ s⁻¹ and the “Triplet Quenching Rate Constant” value was 0.0061 10^9 M^−1s^−1. Also, in data set [3] (ethanol matrix at 77 K), the luminescence maximum is on record as 575 nm. In addition, the “fluorescence at room temperature” value in data set [3] (ethanol solution) is “did not give detectable fluorescence”. Also, the “rate constant from Stern-Volmer plot, if suppression entirely caused by triplet quenching” value in data set [4] (considering triplet lifetime ~1 μs in air saturated DMSO) was roughly 3e+07 M⁻¹ s⁻¹. The “quenching rate constant from Stern-Volmer constant, if singlet excited state is quenched” value in data set [4] (using fluorescence lifetime 12.7 ns) was 2.4e+09 M⁻¹ s⁻¹. In data set [5] (setting [6]), the “first (or only) redox couple, oxidation peak” value was −560 mV; the “first (or only) redox couple, reduction peak” value is −757 mV; the “second redox couple, reduction peak” value was −1297 mV. Besides, in data set [5] (estimated from the peaks), the “first (or only) redox couple, redox potential” value is recorded as −658 mV and the “second redox couple, redox potential” value is listed as “approximately −1199 mV”. Besides, the “second redox couple, oxidation peak” value in data set [5] is reported as −1102 mV.
For `COC(=O)C(C#N)=C1c2ccccc2C(=O)c2ccccc21` [Formula II(a)(1)], the “bimolecular quenching rate constant for singlet excited state quenching (in words)” value in data set [1] (acetonitrile) is recorded as “high quenching rate constant”. Besides, the “Singlet Quenching Rate Constant” value in data set [1] is 5.2 10^9 M^−1s^−1. In addition, in data set [2], the “PPIX triplet quenching rate constant by laser flash photolysis” value came out at 3.2e+09 M⁻¹ s⁻¹ and the “Triplet Quenching Rate Constant” value was 3.2 10^9 M^−1s^−1. Moreover, in data set [2] (triplet decay at 440 nm), the “PPIX triplet quenching (in words)” value is listed as “most efficient quencher”. In data set [3] (ethanol matrix at 77 K), the luminescence maximum amounted to 492 nm and the luminescence quantum yield result is given as “less than 1%”. Moreover, the “Stern-Volmer Constant of ^1O2 Suppression” value in data set [4] was found to be 240 M⁻¹. In data set [5], the “second redox couple, oxidation peak (large)” value is “+430 mV” and the “second redox couple, oxidation peak” value is listed as −1466 mV. The “second redox couple, reduction peak” value in data set [5] (setting [6]) is recorded as −1537 mV. The “second redox couple, redox potential” value in data set [5] (estimated from the peaks) was −1501 mV.
